From patent US20120083464A1, “NEUROPROTECTIVE PROPERTIES OF 5'-METHYLTHIOADENOSINE” (priority 2009, published 2012)
Entries after “also recorded” stand apart in the source; their conditions may differ.

What was measured:
RN22 cells = assay: Hydrogen peroxide stress in RN22 cells, ROS levels; assay type: cell-based, rat; details: hydrogen peroxide 100 μM, different time periods
Description: RN22 cells were maintained at 37° C. in DMEM medium supplemented with 10% of fetal bovine serum and penicillin/streptomycine. The assays against stress with copper sulphate were conducted using 24-well plates in DMEM medium without serum. After allowing cell adherence for three days, NGF (100 ng/ml) or MTA was added to different concentrations half an hour before the copper sulphate (150 μM). After twenty-four hours, cell viability was quantified by MTT assay and ROS production was quantified by fluorescence. Assays against stress with hydrogen peroxide were conducted in the same way as the foregoing, using 100 μM hydrogen peroxide as a stress-producing agent.
We determined the quantity of ROS produced by the cells after stress with and without treatment. 2′,7′- dichlorodihydrofluorescein (DCFH) is generally used to measure oxidative stress in cells. The cells were incubated with DCFH-DA (10 μM) at 37° C. for thirty minutes. After incubation, the cells were washed twice with PBS and lysed by adding 10 mM Tris-HCL buffer containing 0.5% of Tween 20. The homogenates were then centrifuged at 10,000 g for ten minutes to separate the cell residue and […] fluorescence in the supernatant was measured using a fluorometer (excitation wavelength 492-495 nm, emission wavelength 517-527 nm) (Invitrogen).

CA1 hippocampal neurons = assay: Global ischemia (four-vessel occlusion, 10 min), Fluoro jade staining; assay type: in vivo, Wistar rats; details: P<0.01
Description: Before surgical procedures, animals were fasted overnight. The rats were subjected to middle cerebral artery occlusion (MCAO) for 90 min using the intraluminal filament model as described previously (Rickhag et al, 2006; J Neurochem 96:14-29). Blood flow was monitored transcraneally with a doppler laser (Perimed). All physiologic parameters of animals included in the study were within normal ranges and included animals showing typical ischemia-induced behavioral deficits, rotational asymmetry, and dysfunctional limb placement. Rectal and body temperature was maintained at 37° C. during surgery and ischemia with a heating pad. Transient forebrain ischemia was induced by occlusion of the vertebral and common carotid arteries for 10 min according to the method described by Pulsinelli and Brierley (1979; Stroke 10, 267-272.). Criteria for forebrain ischemia were bilateral loss of the righting reflex, paw extension and mydriasis. […]
The animals were treated with MTA (30 or 100 mg/kg i.p.), twice daily reconstituted in Tris 300 mM, or placebo (Tris 300 mM) starting at 30 min of the onset of ischemia. […]

caspase 3 activity = assay: NMDA-mediated increase in caspase 3 activity in mixed neuronal-glial culture; assay type: cell-based, Sprague-Dawley rat; details: NMDA 300 μM, MTA 250 μM or MK-801 10 μM
Description: Primary cultures of brain cortical neurons and glia were essentially prepared as described previously (Bruno et al., 2001, Eur. J. Neurosci., 13:1469-1478). The fronto-lateral cortical lobes were dissected out of Sprague-Dawley embryonic day 17 foetuses and were mechanically dissociated in Hanks' balanced solution. The cortical lobes were triturated by aspirating 7-10 times using a Pasteur pipette with a flame-narrowed tip. […]
Cortical neurons or mixed cortical neurons and glia were plated on poly-L-lysine-coated 6-well culture plates and after 7 DIV, cells were treated with vehicle or NMDA (300 μM) for different periods of time. […] Extracts were then centrifuged at 5,000×g for 10 min at 4° C., and protein content was determined by using the BCA protein assay according to the manufacturer instructions. Cell extracts (40 μg of protein) were incubated in reaction buffer (25 mM Hepes, 10% sucrose, 0.1% CHAPS, 10 mM DTT) containing 50 μM fluorescence substrate Z-DEVD-AFC at 37° C. for 1 h. Cleavage of the AFC fluorophore was determined in a spectrofluorometer at excitation wavelength of 400 nm and fluorescence was detected at an emission wavelength of 505 nm. Caspase 3 activity was expressed as units of fluorescence/mg of protein/h (Posadas et al., 2009, Pharm. Res., In press).

[1] = system: mixed cultures of neurons and astrocytes from the cerebral cortex; assay: Cell toxicity and viability assays (calcein-AM, LDH) in neuron-astrocyte co-cultures; assay type: cell-based; details: MTA 10 μM-1 mM for 24 hours
Text: Primary neuron cultures were obtained from the cortical lobes of E18 Sprague-Dawley rat embryos according to previously described procedures (Cheung et al., 1998, Neuropharmacology 37:1419-1429). The cells were resuspended in B27 Neurobasal medium plus 10% FBS and then seeded in 24-well plates at 1-2×10^5 cells per well onto a monolayer of astrocytes which were previously prepared as described earlier (Vallejo-Illarramendi et al., 2005, Glia 50:276-279). One day later, the medium was replaced by B27-supplemented Neurobasal medium and 10% fetal bovine serum, and maintained at 37° C. and 5% CO2. Cultures were used 8-9 days after plating. Cultured neurons and astrocytes were identified using antibodies to microtubule associated protein-2 and glial fibrillary acidic protein, respectively.
Cell death and cell viability in neuron-astrocyte co-cultures was assayed after 24 h of exposure to MTA (10 μM to 1 mM) using lactate dehydrogenase and calcein-AM assays respectively followed by fluorimetry measurements (Synergy-HT). The results are expressed as percentage of viable cells or LDH release versus controls, as the mean±SEM of at least four independent experiments performed in triplicate. […]

SMILES: CSC[C@H]1O[C@@H](n2cnc3c(N)ncnc32)[C@H](O)[C@@H]1O [MTA, 5′-methylthioadenosine]
- ROS production under hydrogen peroxide stress (RN22 cells): capable of reducing ROS production
- CA1 hippocampal neuron cell death (Fluoro jade fluorescence) (CA1 hippocampal neurons; 10 min global ischemia, MTA i.p. twice daily from 30 min post-ischemia, 7 days): protects
- lower levels of dying cells in the CA1 region versus vehicle (Fluoro jade) (CA1 hippocampal neurons; MTA 30 mg/kg i.p. twice daily, 7 days of reperfusion): about 50%
- protection against NMDA-induced caspase 3 activity (caspase 3 activity): blockade of caspase 3 activation; also recorded: protection
- astrocyte resistance and viability to MTA [1]: resistant and viable
- toxicity (cell viability by calcein fluorescence; cell death by LDH release) ([1]; neurons in co-culture): very low; also recorded: not toxic
